According to patent publication US6469013B2, “Therapeutic compounds” (Parker Hughes Institute, priority 1998, dated 2002):
Like-named read-outs stand apart in the source and are kept apart here.

What was measured:
human JAK3 = target: T1, human JAK3 (Homo sapiens, UniProt P52333); assay: JAK3 immune complex kinase assay (JAK3 immunoprecipitated from KL2 EBV-transformed B cell line); type: biochemical
T1 sequence (P52333 1-1124): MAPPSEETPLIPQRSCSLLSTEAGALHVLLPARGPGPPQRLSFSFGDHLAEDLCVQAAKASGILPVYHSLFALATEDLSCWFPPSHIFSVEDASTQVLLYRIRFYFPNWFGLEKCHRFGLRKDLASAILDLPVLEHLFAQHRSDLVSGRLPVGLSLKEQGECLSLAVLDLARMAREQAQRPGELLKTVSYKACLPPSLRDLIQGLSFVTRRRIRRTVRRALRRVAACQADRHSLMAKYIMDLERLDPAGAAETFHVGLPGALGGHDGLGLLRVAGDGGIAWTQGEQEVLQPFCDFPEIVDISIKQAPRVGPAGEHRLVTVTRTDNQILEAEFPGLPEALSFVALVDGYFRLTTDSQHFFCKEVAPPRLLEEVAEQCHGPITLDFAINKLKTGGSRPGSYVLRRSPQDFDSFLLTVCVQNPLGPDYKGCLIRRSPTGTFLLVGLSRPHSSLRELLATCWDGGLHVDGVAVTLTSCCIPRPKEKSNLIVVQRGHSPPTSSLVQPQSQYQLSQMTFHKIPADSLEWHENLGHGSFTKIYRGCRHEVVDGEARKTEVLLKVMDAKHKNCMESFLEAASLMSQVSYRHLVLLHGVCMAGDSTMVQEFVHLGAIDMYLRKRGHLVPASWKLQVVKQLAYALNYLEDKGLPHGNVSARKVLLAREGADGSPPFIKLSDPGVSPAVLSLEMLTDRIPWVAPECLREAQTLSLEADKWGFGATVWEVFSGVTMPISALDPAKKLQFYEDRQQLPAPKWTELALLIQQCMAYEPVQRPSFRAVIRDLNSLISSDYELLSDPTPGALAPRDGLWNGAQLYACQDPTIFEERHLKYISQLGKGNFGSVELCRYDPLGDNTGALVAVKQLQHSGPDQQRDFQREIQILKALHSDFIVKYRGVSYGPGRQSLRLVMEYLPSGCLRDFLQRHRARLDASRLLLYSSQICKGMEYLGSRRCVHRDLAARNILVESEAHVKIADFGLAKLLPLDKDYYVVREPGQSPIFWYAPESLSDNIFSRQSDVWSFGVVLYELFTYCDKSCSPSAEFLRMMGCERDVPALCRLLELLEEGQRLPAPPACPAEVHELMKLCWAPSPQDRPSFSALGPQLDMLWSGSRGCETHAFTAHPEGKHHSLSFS
Method: (§1) In JAK3 immune complex kinase assays (17, 22), KL-2 EBV-transformed human lymphoblastoid B cells (native JAK3 kinase assays) or insect ovary cells (recombinant JAK3 kinase assays) were lysed with NP-40 lysis buffer (50 mM Tris, pH 8, 150 mM NaCl, 5 mM EDTA, 1% NP-40, 100 μM sodium orthovanadate, 100 μM sodium molybdate, 8 μg/ml aprotinin, 5 μg/ml leupeptin, and 500 μM PMSF) and centrifuged 10 min at 13000× g to remove insoluble material. Samples were immunoprecipitated with antisera prepared against JAK3. The antisera were diluted and immune complexes collected by incubation with 15 μl protein A Sepharose. After 4 washes with NP-40 lysis buffer, the protein A Sepharose beads were washed once in kinase buffer (20 mM MOPS, pH7, 10 mM MgCl2) and resuspended in the same buffer. Reactions were initiated by the addition of 25 μCi [γ^32P] ATP (5000 Ci/mMole) and unlabeled ATP to a final concentration of 5 μM. Reactions were terminated by boiling for 4 min in SDS sample buffer. Samples were run on 9.5% SDS polyacrylamide gels and labeled proteins were detected by autoradiography. Following electrophoresis, kinase gels were dried onto Whatman 3M filter paper and subjected to phosphorimaging on a Molecular Imager (Bio-Rad, Hercules, Calif.) as well as autoradiography on film. For each drug concentration, a kinase activity index (KA) was determined by comparing the kinase activity in phosphorimager units (PIU) to that of the baseline sample. In some experiments, cold kinase assays were performed, as described by (Uckun, F. M., et al., Clin. Can. Res. 4: 901-912, 1998).
We first used immune complex kinase assays to compare the effects of the synthesized dimethoxyquinazoline compounds on the enzymatic activity of human JAK3 immunoprecipitated from the KL2 EBV-transformed human lymphoblastoid B cell line.

recombinant murine JAK3 = target: T2, recombinant murine JAK3 (Mus musculus, UniProt Q62137); assay: Recombinant JAK3 immune complex kinase assay (baculovirus, Sf21); type: biochemical
T2 sequence (Q62137 1-1100): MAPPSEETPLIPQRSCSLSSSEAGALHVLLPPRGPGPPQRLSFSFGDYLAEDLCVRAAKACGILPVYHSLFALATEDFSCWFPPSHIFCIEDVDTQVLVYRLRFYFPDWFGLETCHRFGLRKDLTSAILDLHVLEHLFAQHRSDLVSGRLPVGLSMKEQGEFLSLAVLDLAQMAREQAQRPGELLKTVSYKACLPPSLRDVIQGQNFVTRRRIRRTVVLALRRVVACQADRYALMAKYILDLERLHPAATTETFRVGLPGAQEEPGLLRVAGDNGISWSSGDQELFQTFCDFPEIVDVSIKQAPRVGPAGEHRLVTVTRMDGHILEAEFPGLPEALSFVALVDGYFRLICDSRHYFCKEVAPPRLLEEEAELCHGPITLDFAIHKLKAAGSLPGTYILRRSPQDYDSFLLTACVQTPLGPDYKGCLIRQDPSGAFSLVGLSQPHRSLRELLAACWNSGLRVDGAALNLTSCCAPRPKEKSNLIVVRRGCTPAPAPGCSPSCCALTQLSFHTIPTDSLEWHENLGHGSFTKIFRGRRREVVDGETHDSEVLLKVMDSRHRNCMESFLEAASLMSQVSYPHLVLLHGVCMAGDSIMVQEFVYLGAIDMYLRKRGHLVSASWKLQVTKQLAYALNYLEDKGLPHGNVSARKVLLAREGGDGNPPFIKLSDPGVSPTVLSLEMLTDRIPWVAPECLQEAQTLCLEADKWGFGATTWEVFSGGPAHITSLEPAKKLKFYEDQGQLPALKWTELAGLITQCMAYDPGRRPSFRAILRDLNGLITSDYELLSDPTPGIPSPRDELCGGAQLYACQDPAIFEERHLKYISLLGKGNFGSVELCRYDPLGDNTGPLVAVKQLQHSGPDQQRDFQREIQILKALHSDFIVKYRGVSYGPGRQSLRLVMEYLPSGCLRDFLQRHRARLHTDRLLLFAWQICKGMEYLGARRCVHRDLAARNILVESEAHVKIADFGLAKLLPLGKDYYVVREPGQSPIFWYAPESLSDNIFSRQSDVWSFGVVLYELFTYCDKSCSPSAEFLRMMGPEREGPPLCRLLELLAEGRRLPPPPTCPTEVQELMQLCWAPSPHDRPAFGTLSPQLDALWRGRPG
Method: Sf21 (IPLB-SF21-AE) cells (Vassilev, A., et al., J. Biol. Chem. 274: 1646-1656, 1999) derived from the ovarian tissue of the fall armyworm Spodotera frugiperda, were obtained from Invitrogen (Carlsbad, Calif.) and maintained at 26-28° C. in Grace's insect cell medium supplemented with 10% FBS and 1.0% antibiotic/antimycotic (GIBCO-BRL). Stock cells were maintained in suspension at 0.2-1.6×10^6/ml in 600 ml total culture volume in 1 L Bellco spinner flasks at 60-90 rpm. Cell viability was maintained at 95-100% as determined by trypan blue dye exclusion. Sf21 cells were infected with a baculovirus expression vector for BTK, SYK, JAK1, JAK2, or JAK3. Cells were harvested, lysed (10 MM Tris pH7.6, 100 mM NaCl, 1% Nonidet P40, 10% glycerol, 50 mM NaF, 100 μM Na3VO4, 50 μg/ml phenylmethylsulfonyl fluoride, 10 μg/ml aprotonin, 10 μg/ml leupeptin), the kinases were immunoprecipitated from the lysates, and their enzymatic activity assayed, as reported (Vassilev, A., et al., J. Biol. Chem. 274: 1646-1656, 1999; Uckun, F. M., et al., Science. 22: 1096-1100, 1996; Goodman, P. A., et al., J. Biol. Chem. 273: 17742-48, 1998; Mahajan, S., et al., Mol. Cell. Biol. 15: 5304-11, 1995; and Uckun, F. M., et al., Science. 267: 886-91, 1995). The immunoprecipitates were subjected to Western blot analysis as previously described (Vassilev, A., et al., J. Biol. Chem. 274: 1646-1656, 1999; and Uckun, F. M., et al., Science. 22: 1096-1100, 1996).
as §1, with “Following electrophoresis, kinase gels were dried onto Whatman 3M filter paper and subjected to phosphorimaging on a Molecular Imager (Bio-Rad, Hercules, Calif.) as well as autoradiography on film.” left out, “In some experiments, cold kinase assays were performed, as described by (Uckun, F. M., et al., Clin. Can. Res. 4: 901-912, 1998).” left out

[1] = JAK3 kinase assay, KL2 cell-derived human JAK3, read-out: IC50

COc1cc2ncnc(Nc3ccc(O)c(Cl)c3)c2cc1OC [WHI-P197]
melting point: 245 °C (dec.)

COc1cc2ncnc(Nc3ccccc3)c2cc1OC [WHI-P258, 4-(phenyl)-amino-6,7-dimethoxyquinazoline]
IC50 (human JAK3; [1]): > 300 µM

COc1cc2ncnc(Nc3cccc(Br)c3)c2cc1OC [WHI-P79]
IC50 (human JAK3; [1]): > 300 µM

COc1cc2ncnc(Nc3ccccc3O)c2cc1OC [WHI-P132]
IC50 (human JAK3): > 300 µM
activity against JAK3 (in words) (human JAK3; biological assays): inactive against JAK3

COc1cc2ncnc(Nc3ccc(C)c(Br)c3)c2cc1OC [WHI-P111]
melting point: 225 to 228 °C
IC50 (human JAK3; [1]): > 300 µM

COc1cc2ncnc(Nc3ccc(O)c(Br)c3)c2cc1OC [WHI-P154, 4-(3′bromo4′-hydroxyl-phenyl)-amino-6,7-dimethoxyquinazoline]
IC50 (recombinant murine JAK3; recombinant murine JAK3): 128 µM
IC50 (recombinant murine JAK3; recombinant murine JAK3, converted from μg/ml): ~128 µM

COc1cc2ncnc(Nc3cc(Br)c(O)c(Br)c3)c2cc1OC [WHI-P97, 4-(3′,5′-dibromo-4′-hydroxyl-phenyl)-amino-6,7-dimethoxyquinazoline]
IC50 (human JAK3; [1]): 11 µM
